From PubChem BioAssay (NCI)
Values joined by “and” are separate entries in the source; they are usually repeats but may differ in a detail not shown here. Identical values can stand only once.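 Growth conditions: 96-well plates. Treatment: test compound, 48 hours, 5 concentrations. Analysis: linear interpolation between bracketing concentrations; unreached endpoints set to highest concentration. GI50: concentration for 50% inhibition of growth. TGI: concentration producing complete growth inhibition.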

Tests used:
Experiment in all cases: DTP human tumour cell line panel, 48 h
UACC-62 melanoma = tested on: UACC-62 melanoma
HOP-92 NSCLC = tested on: HOP-92 NSCLC
NCI-H226 lung = tested on: NCI-H226 lung
UACC-257 melanoma = tested on: UACC-257 melanoma
PC-3 prostate = tested on: PC-3 prostate
OVCAR-3 ovarian = tested on: OVCAR-3 ovarian
SNB-75 CNS = tested on: SNB-75 CNS
KM12 colon = tested on: KM12 colon
COLO 205 colon = tested on: COLO 205 colon
RXF 393 renal = tested on: RXF 393 renal

Structure (SMILES) | TGI (UACC-62 melanoma) | TGI (HOP-92 NSCLC) | TGI (NCI-H226 lung) | TGI (UACC-257 melanoma) | TGI (PC-3 prostate) | TGI (OVCAR-3 ovarian) | TGI (SNB-75 CNS) | TGI (KM12 colon) | TGI (COLO 205 colon) | TGI (RXF 393 renal) | GI50 (UACC-62 melanoma) | GI50 (HOP-92 NSCLC) | GI50 (NCI-H226 lung) | GI50 (UACC-257 melanoma) | GI50 (PC-3 prostate) | GI50 (OVCAR-3 ovarian) | GI50 (SNB-75 CNS) | GI50 (KM12 colon) | GI50 (COLO 205 colon) | GI50 (RXF 393 renal)
O=C1C=CC(=O)N1c1ccc(I)cc1 | 31.8 µM | 46.6 µM | 46.3 µM | 32.5 µM | 40.7 µM | 52.7 µM | 44.1 µM | 45.8 µM | 13.9 µM | 33.6 µM |  |  |  |  |  |  |  |  |  | 
O=C(NS(=O)(=O)c1ccc(NC[C@H]2COCCO2)c([N+](=O)[O-])c1)c1ccc(N2CCN(CC3=C(c4ccc(Cl)cc4)CC4(CCC4)CC3)CC2)cc1Oc1cnc2[nH]ccc2c1 | 3 µM | 3.05 µM | 3.93 µM | 4.57 µM | 13.5 µM | 3.7 µM | 6.31 µM | 5.11 µM | 3.4 µM | 2.76 µM | 1.51 µM | 1.43 µM | 1.88 µM | 2.07 µM | 2.43 µM | 1.82 µM | 1.76 µM | 2.21 µM | 1.85 µM | 1.32 µM
Brc1ccc(Nc2nc3ccccc3nc2Nc2ccc(Br)cc2)cc1 | 5.37 µM | 5.5 µM | 10.1 µM | 5.9 µM | 10.4 µM | 1.54 µM | 7.04 µM | 8.96 µM | 3.35 µM | 6.38 µM | 1.94 µM | 2.19 µM | 2.75 µM | 2.01 µM | 0.637 µM | 0.401 µM | 1.9 µM | 1.4 µM | 1.84 µM | 1.49 µM
NC(=N\N=C/c1ccc(Cl)cc1Cl)/C(N)=N\N=C/c1ccc(Cl)cc1Cl | > 100 µM | 56.1 µM | 98 µM | > 100 µM | > 100 µM | > 73.8 µM | 13.4 µM | > 100 µM | > 100 µM | 63.9 µM | > 69.2 µM | 6.54 µM | 9.92 µM | > 100 µM | > 100 µM | 12.3 µM | 1.65 µM | > 100 µM | 46.2 µM | 12.8 µM
O=Cc1ccc(-c2ccc(-c3ccc(C=O)o3)[se]2)o1 | > 100 µM | > 100 µM | > 100 µM | > 100 µM | > 100 µM | > 100 µM | > 100 µM | > 100 µM | > 100 µM | > 100 µM | > 100 µM | 57.1 µM | 41.7 µM | > 100 µM | > 100 µM | > 100 µM | 29.6 µM | > 100 µM | > 100 µM | 55.8 µM
O=C(Nc1ccc(I)cc1)c1cccc([N+](=O)[O-])c1O | 24 µM | 3.22 µM | 33.5 µM | 8.57 µM | 14.6 µM | > 100 µM | 38.6 µM | > 100 µM | 34.6 µM | 9.09 µM | 3.77 µM | 0.373 µM | 2.81 µM | 2.96 µM | 2.72 µM | 2.9 µM | 2.77 µM | 4.05 µM | 3.66 µM | 2.49 µM
O=C(/C=C/c1cccc(S(=O)(=O)Nc2ccccc2)c1)NO | 1.53 µM and 0.196 µM | 2.19 µM and 1.21 µM | 11.5 µM and 5.11 µM | 10.8 µM and > 100 µM | 51.2 µM and 21.8 µM | 4.16 µM and 3.76 µM | 58.1 µM and > 54 µM | 9.14 µM and 10.7 µM |  | 1.79 µM and 1.88 µM |  | 0.27 µM and 0.074 µM | 2.34 µM and 0.694 µM | 0.553 µM and 0.25 µM | 0.557 µM and 0.151 µM | 0.565 µM and 0.512 µM |  | 0.426 µM and 0.0714 µM | 0.353 µM and 0.118 µM | 0.342 µM and 0.101 µM
CCC(C)(C)[C@H](NC(=O)[C@H]1CCCCN1C)C(=O)N(C)[C@H](C[C@@H](OC(C)=O)c1nc(C(=O)N[C@@H](Cc2ccccc2)C[C@H](C)C(=O)O)cs1)C(C)C | > 16.7 µM | > 16.7 µM | 0.00743 µM | > 16.7 µM | > 16.7 µM | 0.00472 µM | > 16.7 µM | > 16.7 µM | 0.00277 µM |  | < 0.00167 µM | 0.00661 µM | < 0.00167 µM | > 16.7 µM | < 0.00167 µM | < 0.00167 µM | < 0.00167 µM | < 0.00167 µM | < 0.00167 µM | < 0.00167 µM
COc1ccc(/C=C/C(=O)c2ccc(Nc3nc(Nc4ccc(F)cc4)nc(Nc4ccc(Cl)cc4)n3)cc2)cc1 | > 100 µM | 88.7 µM | > 100 µM | > 100 µM | > 100 µM | > 100 µM | 45.8 µM | > 100 µM | > 100 µM | > 100 µM | > 100 µM | 31.1 µM | > 100 µM | > 100 µM | 30.6 µM | > 100 µM | 16.2 µM | > 100 µM | 24.2 µM | 13 µM
C=C1C(=O)OC2CC1C(OC(C)=O)C/C(C)=C/CC/C(C)=C\CCC2(C)O (centres undefined) | 26.1 µM and 12.9 µM | 13.2 µM and 9.51 µM | 12.1 µM and 34.2 µM | 18.7 µM and 12.7 µM | 19.6 µM and > 100 µM | 21.1 µM and 51.2 µM | 29.7 µM and 24.3 µM | 32.3 µM and 19.4 µM | 14.4 µM and > 100 µM | 14 µM | 11.3 µM and 2.89 µM |  |  |  | 6.08 µM and 19.9 µM |  |  | 11.6 µM and 5.11 µM |  | 
O=C(Cc1ccc(Nc2ccnc(C(F)(F)F)c2)cc1)N/N=C/c1ccccc1O | 21.5 µM | 21 µM | > 55.6 µM | > 28.7 µM | 16.6 µM | 25.8 µM | 79.3 µM | 15.5 µM | 22.8 µM | 38.7 µM | 2.17 µM | 1.97 µM | 3.85 µM | 3.18 µM | 1.09 µM | 0.793 µM | 4.81 µM | 2.09 µM | 4.33 µM | 3.95 µM
NS(=O)(=O)c1ccc(N=C2C(=O)Nc3ccccc32)cc1 | > 100 µM | > 100 µM | > 100 µM | > 100 µM | > 100 µM | > 100 µM | > 100 µM | > 100 µM | 98.4 µM | > 100 µM |  |  |  |  |  |  |  |  |  | 
Cc1cc(=O)oc2cc(OC(=O)Nc3ccccc3)ccc12 | > 100 µM | 75.4 µM | > 100 µM | > 100 µM | > 100 µM | > 100 µM | > 100 µM | > 100 µM | > 100 µM | > 100 µM |  |  |  |  |  |  |  |  |  | 
O=C1/C(=C\c2ccccc2)CN(C(=O)c2ccccc2)C/C1=C\c1ccccc1 | 3.42 µM | 21 µM | > 100 µM | 5.16 µM | 7.86 µM | 6.34 µM | 22 µM | 3.4 µM | 7.01 µM | 3.21 µM | 1.69 µM | 3.28 µM | 19.3 µM | 2 µM | 2.27 µM | 2.69 µM | 7.24 µM | 1.79 µM | 2.72 µM | 1.68 µM
